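Dose response: 5 concentrations. Exposure: 48 h. Format: 96-well plates. Endpoint: linear interpolation; highest concentration if not reached. GI50 marks 50% less growth.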 Activity calls are given as the source filed them. Rule as the data show it: active = GI50 up to about 1.1 µM and inactive = higher.
Key:
Experiment in all cases: NCI-60 cell line screen, 48 h
XF498 = tested on: XF498
UO-31 = tested on: UO-31
SK-OV-3 = tested on: SK-OV-3
EKVX = tested on: EKVX
KM-20L2 = tested on: KM-20L2
OVCAR-4 = tested on: OVCAR-4
IGROV-1 = tested on: IGROV-1
SR = tested on: SR
RXF 631 = tested on: RXF 631
SN12C = tested on: SN12C
NCI-H226 = tested on: NCI-H226
HOP-92 = tested on: HOP-92
DLD-1 = tested on: DLD-1
TK-10 = tested on: TK-10
DMS-114 = tested on: DMS-114
HOP-18 = tested on: HOP-18
NCI-H460 = tested on: NCI-H460
LOX IMVI = tested on: LOX IMVI
SK-MEL-5 = tested on: SK-MEL-5
HL-60 = tested on: HL-60
NCI-H23 = tested on: NCI-H23
OVCAR-8 = tested on: OVCAR-8
KM12 = tested on: KM12
ACHN = tested on: ACHN
786-0 = tested on: 786-0
UACC-257 = tested on: UACC-257
SF-268 = tested on: SF-268
MOLT-4 = tested on: MOLT-4
COLO 205 = tested on: COLO 205
DMS-273 = tested on: DMS-273
HOP-62 = tested on: HOP-62
OVCAR-5 = tested on: OVCAR-5
CCRF-CEM = tested on: CCRF-CEM
UACC-62 = tested on: UACC-62
SK-MEL-28 = tested on: SK-MEL-28
M19-MEL = tested on: M19-MEL
M14 = tested on: M14
LXFL 529 = tested on: LXFL 529
SNB-78 = tested on: SNB-78
HCT-116 = tested on: HCT-116
Malme-3M = tested on: Malme-3M
A498 = tested on: A498
SNB-75 = tested on: SNB-75
RPMI-8226 = tested on: RPMI-8226
HCC 2998 = tested on: HCC 2998
SF-295 = tested on: SF-295
SW-620 = tested on: SW-620
A549 = tested on: A549
HT-29 = tested on: HT-29
HCT-15 = tested on: HCT-15
K562 = tested on: K562
U-251 = tested on: U-251
SK-MEL-2 = tested on: SK-MEL-2
RXF 393 = tested on: RXF 393
OVCAR-3 = tested on: OVCAR-3
NCI-H522 = tested on: NCI-H522
SNB-19 = tested on: SNB-19
CAKI-1 = tested on: CAKI-1
SF-539 = tested on: SF-539

Measured: GI50

COc1ccc(C[C@H](N)C(=O)NC2C(CO)OC(n3cnc4c(N(C)C)ncnc43)C2O)cc1 (stereo partly specified)
inactive: UO-31 2.68 µM | HOP-18 2.13 µM | OVCAR-5 5.31 µM
2.86 µM: HCT-15
active: XF498 0.0458 µM | SK-OV-3 0.395 µM | EKVX 0.202 µM | KM-20L2 0.513 µM | OVCAR-4 0.389 µM | IGROV-1 0.451 µM | SR 0.138 µM | RXF 631 1 µM | SN12C 0.178 µM | NCI-H226 0.174 µM | HOP-92 0.196 µM | DLD-1 1.11 µM | TK-10 0.67 µM | DMS-114 0.17 µM | NCI-H460 0.255 µM | LOX IMVI 0.112 µM | SK-MEL-5 0.234 µM | HL-60 0.141 µM | NCI-H23 0.161 µM | OVCAR-8 0.182 µM | KM12 0.262 µM | ACHN 1.01 µM | 786-0 0.695 µM | UACC-257 0.358 µM | SF-268 0.354 µM | MOLT-4 0.13 µM | COLO 205 0.154 µM | DMS-273 0.258 µM | HOP-62 0.427 µM | CCRF-CEM 0.145 µM | UACC-62 0.152 µM | SK-MEL-28 0.187 µM | M19-MEL 0.296 µM | M14 0.378 µM | LXFL 529 0.121 µM | SNB-78 0.213 µM | HCT-116 0.115 µM | Malme-3M 0.524 µM | A498 1.04 µM | SNB-75 0.0807 µM | RPMI-8226 0.22 µM | HCC 2998 0.29 µM | SF-295 0.34 µM | SW-620 0.143 µM | A549 0.492 µM | HT-29 0.262 µM | K562 0.133 µM | U-251 0.0297 µM | SK-MEL-2 0.415 µM | RXF 393 0.261 µM | OVCAR-3 0.273 µM

C/N=C(\NC(=S)N(C)C)N(C)C
> 100 µM: HCT-15
inactive: XF498 > 100 µM | UO-31 > 100 µM | NCI-H522 > 100 µM | SK-OV-3 > 100 µM | SNB-19 > 100 µM | EKVX > 100 µM | KM-20L2 > 100 µM | OVCAR-4 > 100 µM | IGROV-1 > 100 µM | SR > 100 µM | RXF 631 > 100 µM | SN12C > 100 µM | NCI-H226 48.5 µM | HOP-92 > 100 µM | DLD-1 > 100 µM | TK-10 > 100 µM | DMS-114 > 100 µM | HOP-18 > 100 µM | NCI-H460 > 100 µM | CAKI-1 > 100 µM | SK-MEL-5 > 100 µM | HL-60 > 100 µM | NCI-H23 > 100 µM | OVCAR-8 > 100 µM | KM12 > 100 µM | ACHN > 100 µM | 786-0 > 100 µM | UACC-257 > 100 µM | SF-268 > 100 µM | MOLT-4 > 100 µM | DMS-273 > 100 µM | HOP-62 > 100 µM | OVCAR-5 > 100 µM | CCRF-CEM > 100 µM | UACC-62 > 100 µM | SK-MEL-28 > 100 µM | M19-MEL > 100 µM | M14 > 100 µM | LXFL 529 > 100 µM | SNB-78 > 100 µM | HCT-116 > 100 µM | Malme-3M > 100 µM | SF-539 > 100 µM | A498 > 100 µM | SNB-75 > 100 µM | RPMI-8226 > 100 µM | HCC 2998 > 100 µM | SF-295 > 100 µM | SW-620 > 100 µM | A549 > 100 µM | HT-29 > 100 µM | K562 > 100 µM | U-251 > 100 µM | SK-MEL-2 > 100 µM | RXF 393 > 100 µM

Reference: ChEMBL document CHEMBL1201862, “PubChem BioAssay data set” (2004)
